Reference: paper PMC7444661 (Journal of medicinal chemistry, 2019)
Each block holds one compound with its values, some of them ahead of it.

Columns and labels:
PDE4D7-S129D [1] = target: T1, PDE4D7-S129D (Homo sapiens, UniProt Q08499, S190D/S715A/S717A); assay: PDE4 coupled enzyme assay of cAMP hydrolysis, PDE4D7-S129D; type: biochemical; conditions: mean ± SD
PDE4B1-S133D = PDE4B1-S133D (Homo sapiens, UniProt Q07343, S133D/S659A/S661A); assay: PDE4 coupled enzyme assay of cAMP hydrolysis, PDE4B1-S133D; type: biochemical; conditions: mean ± SD
PDE4D7-S129(wt) = PDE4D7-S129(wt) (Homo sapiens, UniProt Q08499, S715A/S717A); assay: PDE4 coupled enzyme assay of cAMP hydrolysis, PDE4D7-S129; type: biochemical; conditions: mean ± SD
PDE4D3-S54D = PDE4D3-S54D (Homo sapiens, UniProt Q08499, S190D/S715A/S717A); assay: PDE4 coupled enzyme assay of cAMP hydrolysis, PDE4D3-S54D; type: biochemical; conditions: mean ± SD
PDE4D2 = PDE4D2 (Homo sapiens, UniProt Q08499, S715A/S717A); assay: PDE4 coupled enzyme assay of cAMP hydrolysis, PDE4D2; type: biochemical; conditions: mean ± SD
PDE4D-cat = PDE4D-cat (Homo sapiens, UniProt Q08499, S715A/S717A); assay: PDE4 coupled enzyme assay of cAMP hydrolysis, PDE4D-cat; type: biochemical; conditions: mean ± SD
[2] = Liver microsome stability; type: in vitro ADME, dog, mouse, rat and monkey; conditions: human
mice [3] = assay: Mouse novel object recognition after 24-hour delay; type: in vivo, Male ICR mice; conditions: mouse NOR
mice [4] = assay: Anesthesia duration test; type: in vivo, Male ICR mice; conditions: mouse
PDE1-11 = assay: Counter assays against PDE1-11; type: biochemical; conditions: read-out: off target IC50 against PDE1-11; BPS Bioscience, all assays
rats [5] = assay: Safety pharmacology, CNS and pulmonary, rats; type: in vivo; conditions: up to a maximum oral dose of 60 mg/kg
dog = assay: Safety pharmacology, cardiovascular function, dog; type: in vivo; conditions: up to a maximum oral dose of 100 mg/kg
rats [6] = assay: Dose range finding toxicology, rats; type: in vivo; conditions: oral dose of 100 mg/kg
dogs = assay: Dose range finding toxicology, dogs; type: in vivo; conditions: 100 mg/kg
rats and dogs = assay: Toxicological studies of 28 and 90 days duration; type: in vivo
ferrets = assay: Emesis in ferrets; type: in vivo; conditions: oral doses up to 30 mg/kg
cynomolgus monkeys = assay: Emesis in cynomolgus monkeys; type: in vivo; conditions: oral doses up to 50 mg/kg
FMR1 knockout mice = conditions: cited from earlier work
humanized PDE4D mice = conditions: cited from earlier work
bacteria = assay: Mutagenicity in bacteria
Pharmacokinetics in mice = type: in vivo; conditions: oral
PDE4D7-S129D [7] = target: T1, PDE4D7-S129D; assay: PDE4D7-S129D inhibition in the presence of bovine serum albumin; conditions: bovine serum albumin at 1 mg/mL
[8] = Metabolite identification in human hepatocytes; type: in vitro ADME; conditions: compound 23 incubated 4 hour with human hepatocytes
[9] = Metabolite identification in rat hepatocytes; type: in vitro ADME, male Wistar rats; conditions: compound 23 incubated 4 hour with rat hepatocytes

T1 sequence (Q08499 1-748 isoform Q08499-11 S129D/S654A/S656A): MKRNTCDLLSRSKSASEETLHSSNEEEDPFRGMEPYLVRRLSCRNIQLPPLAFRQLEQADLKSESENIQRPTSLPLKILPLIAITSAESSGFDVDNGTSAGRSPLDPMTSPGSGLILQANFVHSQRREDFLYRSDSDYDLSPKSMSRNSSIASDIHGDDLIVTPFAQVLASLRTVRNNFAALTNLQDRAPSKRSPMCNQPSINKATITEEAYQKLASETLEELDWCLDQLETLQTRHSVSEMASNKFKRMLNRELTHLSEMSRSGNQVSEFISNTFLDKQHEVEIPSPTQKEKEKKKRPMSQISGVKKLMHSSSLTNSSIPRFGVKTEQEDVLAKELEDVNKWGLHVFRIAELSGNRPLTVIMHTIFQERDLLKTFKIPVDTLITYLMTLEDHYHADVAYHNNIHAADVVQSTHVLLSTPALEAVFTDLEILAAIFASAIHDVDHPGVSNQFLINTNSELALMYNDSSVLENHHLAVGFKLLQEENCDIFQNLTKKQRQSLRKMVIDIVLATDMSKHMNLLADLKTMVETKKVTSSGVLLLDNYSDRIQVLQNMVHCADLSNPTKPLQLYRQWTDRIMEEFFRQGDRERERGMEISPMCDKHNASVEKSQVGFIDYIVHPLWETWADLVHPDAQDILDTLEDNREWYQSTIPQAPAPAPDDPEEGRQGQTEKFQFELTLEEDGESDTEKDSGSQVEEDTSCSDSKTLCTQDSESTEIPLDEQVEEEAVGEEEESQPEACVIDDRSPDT
Chain of PDE4D7-S129(wt) (Q08499 1-748 isoform Q08499-11 S654A/S656A): as the sequence (Q08499 1-748 isoform Q08499-11 S129D/S654A/S656A) above, with D129S counted along it
Chain of PDE4B1-S133D (Q07343 whole entry S133D/S659A/S661A): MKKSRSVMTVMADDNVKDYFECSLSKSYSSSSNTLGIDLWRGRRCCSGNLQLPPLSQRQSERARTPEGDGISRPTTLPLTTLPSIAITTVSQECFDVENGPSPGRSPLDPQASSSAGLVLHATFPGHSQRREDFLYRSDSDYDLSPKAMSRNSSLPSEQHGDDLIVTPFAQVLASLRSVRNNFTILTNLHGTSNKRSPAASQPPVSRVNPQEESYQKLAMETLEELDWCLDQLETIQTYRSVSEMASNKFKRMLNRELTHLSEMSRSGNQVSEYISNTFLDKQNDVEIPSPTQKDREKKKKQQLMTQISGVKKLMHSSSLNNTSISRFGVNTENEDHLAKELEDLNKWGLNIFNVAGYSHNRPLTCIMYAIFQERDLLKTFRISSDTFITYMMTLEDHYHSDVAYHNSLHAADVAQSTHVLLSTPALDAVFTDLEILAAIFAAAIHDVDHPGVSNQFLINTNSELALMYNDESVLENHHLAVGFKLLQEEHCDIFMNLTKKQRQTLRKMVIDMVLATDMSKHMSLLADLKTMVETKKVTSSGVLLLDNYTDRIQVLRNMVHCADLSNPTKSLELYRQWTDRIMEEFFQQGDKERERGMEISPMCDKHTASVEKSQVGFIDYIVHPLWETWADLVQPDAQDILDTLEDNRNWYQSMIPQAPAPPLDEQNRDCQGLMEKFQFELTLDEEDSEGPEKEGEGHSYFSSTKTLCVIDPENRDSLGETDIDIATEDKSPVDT
Chain of PDE4D2 (Q08499 303-809 S715A/S717A): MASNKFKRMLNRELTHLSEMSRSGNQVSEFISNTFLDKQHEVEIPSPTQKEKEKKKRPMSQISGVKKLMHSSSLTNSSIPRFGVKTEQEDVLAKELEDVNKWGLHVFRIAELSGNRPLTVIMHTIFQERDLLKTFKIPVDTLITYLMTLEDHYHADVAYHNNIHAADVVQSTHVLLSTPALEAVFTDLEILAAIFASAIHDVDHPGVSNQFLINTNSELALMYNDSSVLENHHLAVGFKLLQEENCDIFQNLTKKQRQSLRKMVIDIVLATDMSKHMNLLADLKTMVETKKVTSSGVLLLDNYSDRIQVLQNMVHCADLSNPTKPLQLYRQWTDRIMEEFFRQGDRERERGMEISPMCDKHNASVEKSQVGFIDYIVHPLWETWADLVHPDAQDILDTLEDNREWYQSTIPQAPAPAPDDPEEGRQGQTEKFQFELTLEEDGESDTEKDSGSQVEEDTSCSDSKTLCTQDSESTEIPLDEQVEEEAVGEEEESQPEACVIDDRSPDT
Chain of PDE4D-cat (Q08499 380-743 S715A/S717A): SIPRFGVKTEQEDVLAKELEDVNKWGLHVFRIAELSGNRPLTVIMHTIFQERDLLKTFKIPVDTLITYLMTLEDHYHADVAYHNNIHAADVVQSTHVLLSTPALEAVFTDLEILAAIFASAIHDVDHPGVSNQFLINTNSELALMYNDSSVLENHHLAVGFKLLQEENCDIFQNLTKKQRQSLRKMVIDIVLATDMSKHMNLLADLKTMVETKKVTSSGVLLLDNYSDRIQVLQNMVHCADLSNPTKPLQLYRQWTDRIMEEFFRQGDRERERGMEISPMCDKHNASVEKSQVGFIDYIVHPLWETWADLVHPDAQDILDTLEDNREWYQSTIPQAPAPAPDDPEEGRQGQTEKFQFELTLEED
Chain of PDE4D3-S54D (Q08499 1-673 isoform Q08499-2 S54D/S579A/S581A): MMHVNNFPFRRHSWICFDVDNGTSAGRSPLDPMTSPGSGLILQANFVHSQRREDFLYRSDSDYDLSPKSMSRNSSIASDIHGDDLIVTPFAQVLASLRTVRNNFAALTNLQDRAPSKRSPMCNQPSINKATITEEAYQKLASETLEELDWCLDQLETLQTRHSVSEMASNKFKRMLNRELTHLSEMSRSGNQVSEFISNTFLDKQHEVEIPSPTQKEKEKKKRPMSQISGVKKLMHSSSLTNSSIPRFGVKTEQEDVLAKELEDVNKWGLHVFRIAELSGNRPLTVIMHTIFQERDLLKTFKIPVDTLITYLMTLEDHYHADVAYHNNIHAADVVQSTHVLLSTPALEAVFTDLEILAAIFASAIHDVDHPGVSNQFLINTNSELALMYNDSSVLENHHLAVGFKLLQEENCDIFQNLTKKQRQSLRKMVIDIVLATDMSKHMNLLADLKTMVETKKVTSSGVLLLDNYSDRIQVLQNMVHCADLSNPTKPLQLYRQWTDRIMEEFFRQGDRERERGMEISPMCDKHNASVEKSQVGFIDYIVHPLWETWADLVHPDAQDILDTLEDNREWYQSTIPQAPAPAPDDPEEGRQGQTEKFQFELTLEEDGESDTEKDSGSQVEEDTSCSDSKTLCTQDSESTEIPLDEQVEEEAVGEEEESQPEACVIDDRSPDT

SMILES: O=C(O)Cc1ccc(Cc2cc(-c3cccc(Cl)c3)nc(C(F)(F)F)c2)cc1 [Compound 28, 2-(4-((2-(3-chlorophenyl)-6-(trifluoromethyl)pyridin-4-yl)methyl)phenyl)acetic acid]
Hill Slope PDE4D7-S129D dimer activated (PDE4D7-S129D [1]): 0.55± 0.12 | Hill Slope PDE4B1-S133D dimer activated (PDE4B1-S133D): 0.92 ± 0.21 | Hill Slope PDE4D7-S129(wt) dimer basal (PDE4D7-S129(wt)): 0.58 ± 0.11 | Hill Slope PDE4D3-S54D dimer activated (PDE4D3-S54D): 0.68 ± 0.14 | Hill Slope PDE4D2 monomer (PDE4D2): 0.60± 0.16 | Hill Slope PDE4D-cat monomer (PDE4D-cat): 1.2 ± 0.10 | remaining in liver microsomes ([2]; rat, mouse and dog liver microsomes, after 30 min incubation): 88-100% | doses that significantly improved novel object discrimination (mice [3]; oral (PO), versus vehicle): above 0.3 mg/kg | effect on anesthesia duration (mice [4]; doses of 3, 10 and 30 mg/kg PO): no significant effect | change in anesthesia duration (mice [4]; doses up to 30 mg/kg): no change | IC50 (PDE1-11): > 10 µM | adverse CNS or pulmonary effects (rats [5]): no adverse CNS or pulmonary effects | effect on cardiovascular function (dog): no effect | dose range finding toxicology findings (rats [6]): inappetence and weight loss | dose range finding toxicology findings (dogs): emesis, tremor and weight loss | vascular toxicity and microscopic findings (rats and dogs): did not reveal vascular toxicity nor any other microscopic findings | emesis (ferrets): did not cause emesis | emesis (cynomolgus monkeys): nor did it cause emesis | maturation of dendritic spines on layer 2/3 pyramidal cells (FMR1 knockout mice; FMR1 knockout mice): promotes | behavior of adult FMR1 knockout mice (FMR1 knockout mice): normalizes | potency in humanized PDE4D mice as compared to wild-type mice (humanized PDE4D mice): increased potency | brain cAMP (humanized PDE4D mice; mice): increases | late phase of hippocampal long-term potentiation (LTP) (humanized PDE4D mice; mice): augments | phosphorylation of CREB (humanized PDE4D mice; mice): increases | production of brain-derived neurotrophic factor (BDNF) in hippocampus (humanized PDE4D mice; mice): increases | short and long term memory (humanized PDE4D mice; mice): improves | mutagenicity in bacteria (bacteria): not mutagenic

SMILES: CCc1cc(Cc2ccc(CC(N)=O)cc2)nc(-c2cccc(Cl)c2)n1 [Compound 23, 2-(4-((2-(3-Chlorophenyl)-6-ethylpyrimidin-4-yl)methyl)phenyl)acetamide]
parent remaining in liver microsomes ([2]; dog, mouse, rat and monkey liver microsomes, at 30 min): 54-90% | extended absorption (Pharmacokinetics in mice): 4 to 8 h | shift in IC50 for PDE4D7-S129D inhibition in the presence of BSA (PDE4D7-S129D [7]): no shift

SMILES: COc1ccc(C2CNC(=O)C2)cc1OC1CCCC1 (stereo not drawn) [rolipram, reference compound]
dose that significantly improved novel object discrimination (mice [3]; SC): 0.1 mg/kg

Further lines, results first:

Hill Slope PDE4D7-S129D dimer activated (PDE4D7-S129D [1]): 0.66± 0.03 | Hill Slope PDE4B1-S133D dimer activated (PDE4B1-S133D): 0.37 ± 0.04 | Hill Slope PDE4D7-S129(wt) dimer basal (PDE4D7-S129(wt)): 0.50 ± 0.1
SMILES: CCc1cc(Cc2ccc(CC(=O)NCCO)cc2)nc(-c2cccc(Cl)c2)n1 [Compound 29, 2-(4-((2-(3-Chlorophenyl)-6-ethylpyrimidin-4-yl)methyl)phenyl)-N-(2-hydroxyethyl)acetamide]

percentage of metabolite present [8]: <1% | percentage of metabolite present [9]: 29.1%
SMILES: CCc1cc(Cc2ccc(CC(=O)O)cc2)nc(-c2cccc(Cl)c2)n1 [Compound M6]
